Reference: ChEMBL document CHEMBL1949508, “The selective cytotoxic activity in breast cancer cells by an anthranilic alcohol-derived acyclic 5-fluorouracil O,N-acetal is mediated by endoplasmic reticulum stress-induced apoptosis” (Eur J Med Chem, 2012)

Experiments:
MCF7 [1] = assay: Antiproliferative activity against human MCF7 cells after 3 days by SRB assay; format: functional, cell-based; conditions: MCF7, 72 h
MCF-10A [2] = assay: Cytotoxicity against human MCF10A cells after 3 days by SRB assay; format: cell-based; conditions: 72 h
MCF7 [3] = assay: Antiproliferative activity against human MCF7 cells assessed as cell viability at 1.09 uM after […] by SRB assay (reference value: 96.35 +/- 1.32%); format: functional; conditions: read-out: Activity
[4] = Antiproliferative activity against human MCF10A cells assessed as viable cells at 37.67 uM after […] by SRB assay (reference value: 98.46 +/- 3.2%); format: cell-based, MCF-10A; conditions: read-out: Activity
MCF7 [5] = assay: Induction of apoptosis in human MCF7 cells assessed as apoptotic cells at 1.09 uM after 48 hrs by annexinV-FITC/PI-based flow cytometry relative to control; format: functional
MCF-10A [6] = assay: Induction of apoptosis in human MCF10A cells assessed as apoptotic cells at 37.67 uM after 48 hrs by annexinV-FITC/PI-based flow cytometry relative to control; format: cell-based
MCF7 [7] = assay: Induction of apoptosis in human MCF7 cells assessed as early apoptotic cells at 1.09 uM after 48 hrs by annexinV-FITC/PI-based flow cytometry (reference value: 3.27 +/- 0.67%); format: functional
MCF-10A [8] = assay: Induction of apoptosis in human MCF10A cells assessed as early apoptotic cells at 37.67 uM after 48 hrs by annexinV-FITC/PI-based flow cytometry (reference value: 0.73 +/- 0.23%); format: cell-based
MCF7 [9] = assay: Induction of apoptosis in human MCF7 cells assessed as late apoptotic cells at 1.09 uM after 48 hrs by annexinV-FITC/PI-based flow cytometry (reference value: 0.11 +/- 0.02%); format: functional
MCF-10A [10] = assay: Induction of apoptosis in human MCF10A cells assessed as late apoptotic cells at 37.67 uM after 48 hrs by annexinV-FITC/PI-based flow cytometry (reference value: 0.21 +/- 0.1%); format: cell-based
MCF7 [11] = assay: Induction of necrosis in human MCF7 cells assessed as necrotic cells at 1.09 uM after 48 hrs by annexinV-FITC/PI-based flow cytometry (reference value: 0.27 +/- 0.01%); format: functional
MCF-10A [12] = assay: Induction of necrosis in human MCF10A cells assessed as necrotic cells at 37.67 uM after 48 hrs by annexinV-FITC/PI-based flow cytometry (reference value: 0.6 +/- 0.13%); format: cell-based
MCF7 [13] = assay: Upregulation of BBC3 gene in human MCF7 cells at 1.09 uM after 48 hrs by microarray hybridization relative to control; format: functional
MCF7 [14] = assay: Upregulation of MTL5 gene in human MCF7 cells at 1.09 uM after 48 hrs by microarray hybridization relative to control; format: functional
MCF7 [15] = assay: Upregulation of BMF gene in human MCF7 cells at 1.09 uM after 48 hrs by microarray hybridization relative to control; format: functional
MCF7 [16] = assay: Upregulation of BNIP3L gene in human MCF7 cells at 1.09 uM after 48 hrs by microarray hybridization relative to control; format: functional
MCF7 [17] = assay: Upregulation of BNIP3 gene in human MCF7 cells at 1.09 uM after 48 hrs by microarray hybridization relative to control; format: functional
MCF7 [18] = assay: Upregulation of GADD45A gene in human MCF7 cells at 1.09 uM after 48 hrs by microarray hybridization relative to control; format: functional
MCF7 [19] = assay: Upregulation of CARD14 gene in human MCF7 cells at 1.09 uM after 48 hrs by microarray hybridization relative to control; format: functional
MCF7 [20] = assay: Upregulation of GADD45B gene in human MCF7 cells at 1.09 uM after 48 hrs by microarray hybridization relative to control; format: functional
MCF7 [21] = assay: Upregulation of DNASE1 gene in human MCF7 cells at 1.09 uM after 48 hrs by microarray hybridization relative to control; format: functional
MCF7 [22] = assay: Upregulation of NOXA gene in human MCF7 cells at 1.09 uM after 48 hrs by microarray hybridization relative to control; format: functional
MCF7 [23] = assay: Downregulation of UNC5C gene in human MCF7 cells at 1.09 uM after 48 hrs by microarray hybridization relative to control; format: functional
MCF7 [24] = assay: Downregulation of CARD9 gene in human MCF7 cells at 1.09 uM after 48 hrs by microarray hybridization relative to control; format: functional
MCF7 [25] = assay: Downregulation of AVEN gene in human MCF7 cells at 1.09 uM after 48 hrs by microarray hybridization relative to control; format: functional
MCF7 [26] = assay: Downregulation of BCL2 gene in human MCF7 cells at 1.09 uM after 48 hrs by microarray hybridization relative to control; format: functional
MCF7 [27] = assay: Downregulation of BAG2 gene in human MCF7 cells at 1.09 uM after 48 hrs by microarray hybridization relative to control; format: functional
MCF7 [28] = assay: Downregulation of CD14 gene in human MCF7 cells at 1.09 uM after 48 hrs by microarray hybridization relative to control; format: functional
MCF7 [29] = assay: Downregulation of E2F1 gene in human MCF7 cells at 1.09 uM after 48 hrs by microarray hybridization relative to control; format: functional
MCF7 [30] = assay: Downregulation of […] gene in human MCF7 cells at 1.09 uM after 48 hrs by microarray hybridization relative to control; format: functional
MCF7 [31] = assay: Downregulation of TP5313 gene in human MCF7 cells at 1.09 uM after 48 hrs by microarray hybridization relative to control; format: functional

IC50 (MCF7 [1]): 1.09 µM
SMILES: COC(CN(c1ccccc1CO)S(=O)(=O)c1ccccc1N)n1cc(F)c(=O)[nH]c1=O (racemic)
IC50 (MCF-10A [2]): 37.7 µM
viability at 1.09 µM (MCF7 [3]): 6.35%
viability at 37.67 µM [4]: 30.9%
Activity (MCF7 [5]): 90.73%
Activity (MCF-10A [6]): 19.86%
Activity (MCF7 [7]): 13.73%
Activity (MCF-10A [8]): 2.57%
Activity (MCF7 [9]): 77.4%
Activity (MCF-10A [10]): 17.29%
Activity (MCF7 [11]): 2.52%
Activity (MCF-10A [12]): 49.24%
fold change (FC) (MCF7 [13]): 3.78
fold change (FC) (MCF7 [14]): 3.75
fold change (FC) (MCF7 [15]): 3
fold change (FC) (MCF7 [16]): 2.84
fold change (FC) (MCF7 [17]): 2.65
fold change (FC) (MCF7 [18]): 2.54
fold change (FC) (MCF7 [19]): 2.34
fold change (FC) (MCF7 [20]): 2.2
fold change (FC) (MCF7 [21]): 2.07
fold change (FC) (MCF7 [22]): 2.02
fold change (FC) (MCF7 [23]): -2.01
fold change (FC) (MCF7 [24]): -2.11
fold change (FC) (MCF7 [25]): -2.21
fold change (FC) (MCF7 [26]): -2.26
fold change (FC) (MCF7 [27]): -2.32
fold change (FC) (MCF7 [28]): -2.61
fold change (FC) (MCF7 [29]): -2.61
fold change (FC) (MCF7 [30]): -2.62
fold change (FC) (MCF7 [31]): -2.68
